Source: ChEMBL document CHEMBL1130447, “Two-ring DNA minor-groove binders consisting of readily available, di-substituted benzene derivatives” (Bioorg Med Chem Lett, 1997)

Legend:
Format in all cases: nucleic-acid assay
Nucleic Acid [1] = test: The compound was tested for its binding affinity to Poly (dG-dC) by using ethidium displacement assay
Nucleic Acid [2] = test: The compound was tested for its binding affinity to Poly (dA-dT) by using ethidium displacement assay
Nucleic Acid [3] = test: The compound was tested for its binding affinity to T4 ethidium displacement assay
Nucleic Acid [4] = test: The compound was tested for its binding affinity to calf thymus DNA by using ethidium displacement assay; details: Bos taurus

CN1CCN(c2ccc3[nH]c(-c4ccc5[nH]c(-c6ccc(O)cc6)nc5c4)nc3c2)CC1
C50 (Nucleic Acid [1]): 1.4 µM
C50 (Nucleic Acid [2]): 0.2 µM

CN(C)CCCNC(=O)Nc1ccc(NC(=O)c2ccc(C(=O)NCCCN(C)C)cc2)cc1
C50 (Nucleic Acid [1]): 77.3 µM
C50 (Nucleic Acid [2]): 23.5 µM
C50 (Nucleic Acid [3]): 35.2 µM
C50 (Nucleic Acid [4]): 44.8 µM

CN(C)CCCNC(=O)c1cccc(C(=O)Nc2ccc(NC(=O)CCCN(C)C)cc2)c1
C50 (Nucleic Acid [1]): 55.6 µM
C50 (Nucleic Acid [2]): 28.4 µM
C50 (Nucleic Acid [3]): 35.6 µM
C50 (Nucleic Acid [4]): 47.3 µM

CN(C)CCCNC(=O)c1ccc(C(=O)Nc2cccc(NC(=O)CCCN(C)C)c2)cc1
C50 (Nucleic Acid [1]): 142 µM
C50 (Nucleic Acid [2]): 1.9 µM
C50 (Nucleic Acid [3]): 27.1 µM
C50 (Nucleic Acid [4]): 31.9 µM

C[n+]1ccc(Nc2ccc(NC(=O)c3ccc(Nc4cc[n+](C)c5ccccc45)cc3)cc2)cc1
C50 (Nucleic Acid [1]): 2.8 µM
C50 (Nucleic Acid [2]): 0.17 µM

N=C(N)c1ccc(/N=N/Nc2ccc(C(=N)N)cc2)cc1
C50 (Nucleic Acid [1]): 5.7 µM
C50 (Nucleic Acid [2]): 0.9 µM

CN(C)CCCNC(=O)Nc1cccc(NC(=O)c2ccc(C(=O)NCCCN(C)C)cc2)c1
C50 (Nucleic Acid [1]): 222 µM
C50 (Nucleic Acid [2]): 4.2 µM
C50 (Nucleic Acid [3]): 28.6 µM
C50 (Nucleic Acid [4]): 43.5 µM
